This assay addresses human recombinant H-PGDS (Homo sapiens, UniProt O60760). Nature of the assay: Fluorescence Intensity h-PGDS TBA Enzyme Assay. In kind it is biochemical. Conditions: 1:175,000 human recombinant H-PGDS, highest inhibitor concentration typically 1 μM. The method, then:
Fluorescence Intensity h-PGDSTBA Enzyme Assay
Prostaglandin D Synthase (PGDS) converts the substrate prostaglandin H2 (PGH2) to prostaglandin D2. The depletion of PGH2 was measured via an Fe(II) reduction of the remaining PGH2 to malondialdehyde (MDA) and 12-HHT. The enzyme assay is based on the quantitative formation of a fluorescent complex from the non-fluorescent compounds MDA and 2-thiobarbituric acid (TBA), substantially as described in U.S. patent application publication US-2004/152148 by Lombardt.
The enzyme assay (31 μls) contained 100 mM Tris base pH 8.0, 100 μM MgCl2, 0.1 mg/ml IgG Rabbit serum, 5.0 μM PGH2 (Cayman; ethanol solution, #17020), 2.5 mM L-Glutathione (Sigma; reduced form #G4251), 1:175,000 human recombinant H-PGDS (from 1 mg/ml), 0.5% DMSO and inhibitor (varying concentration). Three μls of diluted inhibitor (dissolved in DMSO) was plated into a 384-well assay plate followed by a 25 μl addition of an enzyme solution containing h-PGDS, Tris, MgCl2, IgG and L-Glutathione. After preincubation of inhibitor and enzyme solution for 10 minutes at room temperature, the reaction was initiated with a 3 μl addition of substrate solution in 10 mM HCl. The reaction was terminated after 42 second by the addition (3 μl) of stop buffer containing FeCl2 and citric acid. After addition of 45.5 μls of TBA plates were heated for one hour in a 70 C oven. Plates were cooled at room temperature overnight and read on a plate reader the next day with excitation @ 530 nm and emission @ 565 nm.
IC50's of inhibitors were calculated with a 4-parameter fit using 11 inhibitor concentrations in duplicate with 3-fold serial dilutions. Controls on each plate included no inhibitor (zero % effect) and an inhibitor 10-fold in excess of its' IC50 (100% effect). The highest inhibitor concentration tested was typically 1 μM.
Chain of human recombinant H-PGDS (O60760 whole entry): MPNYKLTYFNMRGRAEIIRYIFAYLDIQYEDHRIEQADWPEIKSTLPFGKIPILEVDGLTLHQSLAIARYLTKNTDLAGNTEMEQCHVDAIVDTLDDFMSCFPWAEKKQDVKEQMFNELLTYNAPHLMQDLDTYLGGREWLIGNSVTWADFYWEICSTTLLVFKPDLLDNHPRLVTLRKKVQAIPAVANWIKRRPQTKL
In the case of “6-(3-Fluorophenyl)-N-(3- hydroxypropyl)nicotinamide [Example 435]”, the IC50 was 49.5 nM.
To “6-(3-Fluorophenyl)-N-[2- hydroxy-2-(1-methyl-1H- imidazol-2- yl)ethyl]nicotinamide [Example 4]” belongs 59.9 nM.
To “6-(3-Fluorophenyl)-N-{[1- (2-methoxyethyl)piperidin- 3-yl]methyl}nicotinamide [Example 438]” belongs 374 nM.
The result for “6-(3-Fluorophenyl)-N-{[4-(4- methoxybenzoyl)-5- oxomorpholin-2- yl]methyl}nicotinamide [Example 72]” reads 51 nM; that for `Cc1ccc2nc(CCNC(=O)c3ccc(-c4cccc(F)c4)nc3)cn2c1` [Example 1, 6-(3-Fluorophenyl)-N-[2-(6-methylimidazo[1,2-a]pyridin-2-yl)ethyl]nicotinamide], 3.54 nM; that for `Cc1nc(CCNC(=O)c2ccc(-c3cccc(F)c3)nc2)cs1` [Example 2, 6-(3-Fluorophenyl)-N-[2-(2-methyl-1,3-thiazol-4-yl)ethyl]nicotinamide], 3.53 nM.
Turning to `Cc1cccnc1CC(C)NC(=O)c1ccc(-c2cccc(F)c2)nc1` (centres unmarked) [Example 3, 6-(3-Fluorophenyl)-N-[1-methyl-2-(3-methylpyridin-2-yl)ethyl]nicotinamide], the IC50 turned out to be 2.89 nM.
Take `O=C(NCCCn1nnc2ccccc21)c1ccc(-c2cccc(F)c2)nc1` [Example 5, N-[3-(1H-Benzotriazol-1-yl)propyl]-6-(3-fluorophenyl)nicotinamide]: the IC50 amounted to 4.86 nM.
Consider `O=C(NCCc1cn2cccnc2n1)c1ccc(-c2cccc(F)c2)nc1` [Example 6, 6-(3-Fluorophenyl)-N-(2-imidazo[1,2-a]pyrimidin-2-ylethyl)nicotinamide], for which the 50% inhibitory concentration (IC50) worked out at 13 nM.
The result for `Cc1cc(=O)[nH]c(NCCNC(=O)c2ccc(-c3cccc(F)c3)nc2)n1` [Example 7, 6-(3-Fluorophenyl)-N-{2-[(4-methyl-6-oxo-1,6-dihydropyrimidin-2-yl)amino]ethyl}nicotinamide] reads 38.8 nM; that for `N#CC(NC(=O)c1ccc(-c2cccc(F)c2)nc1)c1ccccc1` (centres unmarked) [Example 8, N-[Cyano(phenyl)methyl]-6-(3-fluorophenyl)nicotinamide], 25.7 nM.
The result for `O=C(NC[C@H]1CC[C@H](c2nnc(C3CC3)[nH]2)CC1)c1ccc(-c2cccc(F)c2)nc1` [Example 9, N-{[trans-4-(5-Cyclopropyl-4H-1,2,4-triazol-3-yl)cyclohexyl]methyl}-6-(3-fluorophenyl)nicotinamide] reads 83.6 nM.
The result for `CN1CCc2nc(N3CCC(CNC(=O)c4ccc(-c5cccc(F)c5)nc4)CC3)ncc2C1` [Example 10, 6-(3-Fluorophenyl)-N-{[1-(6-methyl-5,6,7,8-tetrahydropyrido[4,3-d]pyrimidin-2-yl)piperidin-4-yl]methyl}nicotinamide] reads 26.9 nM; that for `Cc1noc([C@H]2CC[C@H](CNC(=O)c3ccc(-c4cccc(F)c4)nc3)CC2)n1` [Example 11, 6-(3-Fluorophenyl)-N-{[trans-4-(3-methyl-1,2,4-oxadiazol-5-yl)cyclohexyl]methyl} nicotinamide], 18.9 nM.
In the case of `CC(C)N1CCC(CNC(=O)c2ccc(-c3cccc(F)c3)nc2)C1` (centres unmarked) [Example 12, 6-(3-Fluorophenyl)-N-[(1-isopropylpyrrolidin-3-yl)methyl]nicotinamide], the 50% inhibitory concentration (IC50) worked out at 117 nM.
`O=C(NCc1ccc[nH]c1=O)c1ccc(-c2cccc(F)c2)nc1` [Example 13, 6-(3-Fluorophenyl)-N-[(2-oxo-1,2-dihydropyridin-3-yl)methyl]nicotinamide]: the IC50 came to 20.4 nM.
To `O=C(NCC1CCCN(c2ccccn2)C1)c1ccc(-c2cccc(F)c2)nc1` (centres unmarked) [Example 14, 6-(3-Fluorophenyl)-N-[(1-pyridin-2-ylpiperidin-3-yl)methyl]nicotinamide] belongs 9.18 nM.
The result for `O=C(NC(c1ccccc1)c1nc(CN2CCOCC2)no1)c1ccc(-c2cccc(F)c2)nc1` (centres unmarked) [Example 15, 6-(3-Fluorophenyl)-N-{[3-(morpholin-4-ylmethyl)-1,2,4-oxadiazol-5-yl](phenyl)methyl}nicotinamide] reads 70.9 nM; that for `COc1ccccc1-c1nnc(CCNC(=O)c2ccc(-c3cccc(F)c3)nc2)o1` [Example 16, 6-(3-Fluorophenyl)-N-{2-[5-(2-methoxyphenyl)-1,3,4-oxadiazol-2-yl]ethyl}nicotinamide], 4.1 nM.
The result for `COCCCn1cnnc1CNC(=O)c1ccc(-c2cccc(F)c2)nc1` [Example 17, 6-(3-Fluorophenyl)-N-{[4-(3-methoxypropyl)-4H-1,2,4-triazol-3-yl]methyl}nicotinamide] reads 112 nM.
As to `O=C(NCCN1CCCC(CO)C1)c1ccc(-c2cccc(F)c2)nc1` (centres unmarked) [Example 18, 6-(3-Fluorophenyl)-N-{2-[3-(hydroxymethyl)piperidin-1-yl]ethyl}nicotinamide], the IC50 amounted to 31.1 nM.
To `COCCN1CCC(CNC(=O)c2ccc(-c3cccc(F)c3)nc2)CC1` [Example 19, 6-(3-Fluorophenyl)-N-{[1-(2-methoxyethyl)piperidin-4-yl]methyl}nicotinamide] belongs 117 nM.
The result for `COCCN1CC(CNC(=O)c2ccc(-c3cccc(F)c3)nc2)CC1=O` (centres unmarked) [Example 20, 6-(3-Fluorophenyl)-N-{[1-(2-methoxyethyl)-5-oxopyrrolidin-3-yl]methyl}nicotinamide] reads 35.1 nM; that for `COc1cc(CCNC(=O)c2ccc(-c3cccc(F)c3)nc2)cc(OC)c1O` [Example 21, 6-(3-Fluorophenyl)-N-[2-(4-hydroxy-3,5-dimethoxyphenyl)ethyl] nicotinamide], 4.94 nM.
The result for `CCCOCCCNC(=O)c1ccc(-c2cccc(F)c2)nc1` [Example 22, 6-(3-Fluorophenyl)-N-(3-propoxypropyl)nicotinamide] reads 13.8 nM.
Regarding `COCCn1cnnc1CNC(=O)c1ccc(-c2cccc(F)c2)nc1` [Example 23, 6-(3-Fluorophenyl)-N-{[4-(2-methoxyethyl)-4H-1,2,4-triazol-3-yl]methyl}nicotinamide], the IC50 was 106 nM.
To `CC(CCCC(C)(C)O)NC(=O)c1ccc(-c2cccc(F)c2)nc1` (centres unmarked) [Example 24, 6-(3-Fluorophenyl)-N-(5-hydroxy-1,5-dimethylhexyl)nicotinamide] belongs 20.2 nM; to `Cn1ccnc1C(NC(=O)c1ccc(-c2cccc(F)c2)nc1)c1c(F)cccc1F` (centres unmarked) [Example 25, N-[(2,6-Difluorophenyl)(1-methyl-1H-imidazol-2-yl)methyl]-6-(3-fluorophenyl)nicotinamide], 399 nM.
The result for `O=C(NCC1(O)CCCCC1)c1ccc(-c2cccc(F)c2)nc1` [Example 26, 6-(3-Fluorophenyl)-N-[(1-hydroxycyclohexyl)methyl] nicotinamide] reads 41.8 nM; that for `CCOC(=O)CC[C@H](NC(=O)c1ccc(-c2cccc(F)c2)nc1)C(=O)OCC` [Example 27, Diethyl N-{[6-(3-fluorophenyl)pyridin-3-yl]carbonyl}-L-glutamate], 4.29 nM.
Regarding `CS(=O)(=O)CCNC(=O)c1ccc(-c2cccc(F)c2)nc1` [Example 28, 6-(3-Fluorophenyl)-N-[2-(methylsulfonyl)ethyl] nicotinamide], the IC50 came to 47.1 nM.
To `NC(=O)[C@H](Cc1ccccc1)NC(=O)c1ccc(-c2cccc(F)c2)nc1` [Example 29, Nalpha-{[6-(3-fluorophenyl)pyridin-3-yl]carbonyl} phenylalaninamide] belongs 17.6 nM.
To `O=C(CC(NC(=O)c1ccc(-c2cccc(F)c2)nc1)C1CC1)NCC1CC1` (centres unmarked) [Example 30, N-{1-Cyclopropyl-3-[(cyclopropylmethyl)amino]-3-oxopropyl}-6-(3-fluorophenyl)nicotinamide] belongs 41 nM.
For `COc1ccc(CCc2nnc(CNC(=O)c3ccc(-c4cccc(F)c4)nc3)[nH]2)cc1` [Example 31, 6-(3-Fluorophenyl)-N-({5-[2-(4-methoxyphenyl)ethyl]-4H-1,2,4-triazol-3-yl}methyl)nicotinamide], the 50% inhibitory concentration (IC50) is 35 nM.
To `O=C(NCCN1CCC(O)CC1)c1ccc(-c2cccc(F)c2)nc1` [Example 32, 6-(3-Fluorophenyl)-N-[2-(4-hydroxypiperidin-1-yl)ethyl]nicotinamide] belongs 31.1 nM.
Consider `COc1cccc(CNC(=O)c2ccc(-c3cccc(F)c3)nc2)c1OC` [Example 33, N-(2,3-Dimethoxybenzyl)-6-(3-fluorophenyl)nicotinamide], for which the IC50 was 2.72 nM.
With `CCOCC(O)CNC(=O)c1ccc(-c2cccc(F)c2)nc1` (centres unmarked) [Example 34, N-(3-Ethoxy-2-hydroxypropyl)-6-(3-fluorophenyl)nicotinamide], the IC50 came to 73.4 nM.
Turning to `O=C(NCCc1nc(CN2CCOCC2)no1)c1ccc(-c2cccc(F)c2)nc1` [Example 35, 6-(3-Fluorophenyl)-N-{2-[3-(morpholin-4-ylmethyl)-1,2,4-oxadiazol-5-yl]ethyl}nicotinamide], the concentration for half-maximal inhibition (IC50) was 50.8 nM.

For the origin of these results see US20110306597A1, “Nicotinamide Derivatives” (priority 2008, published 2011).
